# Tested on: MV-4-11 cells
# Test: Gene expression microarray analysis (Affymetrix PrimeView) and GSEA
# Format: cell-based, human
# Set-up: RFU PODN (11730768_x_at) / Fold change /veh PODN (11730768_x_at) / RFU LINC00158 (11744669_a_at) / Fold change /veh LINC00158 (11744669_a_at) / RFU DUSP10 (11751237_a_at) / Fold change /veh DUSP10 (11751237_a_at) / RFU ID3 (11757404_x_at) / Fold change /veh ID3 (11757404_x_at) / RFU PLEKHG5 (11737974_s_at) / Fold change /veh PLEKHG5 (11737974_s_at) / RFU LRRC4B (11730491_at) / Fold change /veh LRRC4B (11730491_at) / RFU GIMAP4 (11747438_a_at) / Fold change /veh GIMAP4 (11747438_a_at) / RFU KRT8 (11758183_x_at) / Fold change /veh KRT8 (11758183_x_at) / RFU CNN1 (11734310_a_at) / Fold change /veh CNN1 (11734310_a_at) / RFU VPS37D (11726825_at) / Fold change /veh VPS37D (11726825_at) / RFU C10orf10 (11716522_x_at) / Fold change /veh C10orf10 (11716522_x_at) / RFU KIR2DL2 /// KIR2DL4 /// KIR2DL5A /// KIR2DL5B /// KIR2DS1 /// KIR2DS2 /// KIR2DS3 /// KIR2DS4 /// KIR3DL3 /// KIR3DL3 /// KIR3DS1 (11738374_at) / Fold change /veh KIR2DL2 /// KIR2DL4 /// KIR2DL5A /// KIR2DL5B /// KIR2DS1 /// KIR2DS2 /// KIR2DS3 /// KIR2DS4 /// KIR3DL3 /// KIR3DL3 /// KIR3DS1 (11738374_at) / RFU C1QL1 (11718748_at) / Fold change /veh C1QL1 (11718748_at) / RFU TMPRSS4 (11747572_a_at) / Fold change /veh TMPRSS4 (11747572_a_at) / RFU HAMP (11756126_x_at) / Fold change /veh HAMP (11756126_x_at) / RFU RNFT2 (11725882_a_at) / Fold change /veh RNFT2 (11725882_a_at) / RFU NR4A2 (11747474_a_at) / Fold change /veh NR4A2 (11747474_a_at) / RFU ABCC12 (11746883_a_at) / Fold change /veh ABCC12 (11746883_a_at) / RFU TMEM136 (11760407_x_at) / Fold change /veh TMEM136 (11760407_x_at) / RFU CLDN22 /// WWC2 (11732394_at) / Fold change /veh CLDN22 /// WWC2 (11732394_at) / RFU HLA-DPB1 (11760878_x_at) / Fold change /veh HLA-DPB1 (11760878_x_at) / RFU SPINT1 (11716480_a_at) / Fold change /veh SPINT1 (11716480_a_at) / RFU GAP43 (11754022_s_at) / Fold change /veh GAP43 (11754022_s_at) / RFU A4GNT (11735810_at) / Fold change /veh A4GNT (11735810_at) / RFU PRB3 (11715151_x_at) / Fold change /veh PRB3 (11715151_x_at) / RFU TUBB4B (11761932_at) / Fold change /veh TUBB4B (11761932_at) / RFU CAPN14 (11732068_a_at) / Fold change /veh CAPN14 (11732068_a_at) / RFU TMCC2 (11721928_a_at) / Fold change /veh TMCC2 (11721928_a_at) / RFU IRGQ (11745062_a_at) / Fold change /veh IRGQ (11745062_a_at) / RFU FAM174B (11720279_a_at) / Fold change /veh FAM174B (11720279_a_at) / RFU TMPRSS4 (11748680_a_at) / Fold change /veh TMPRSS4 (11748680_a_at) / RFU FAM212B (11763350_a_at) / Fold change /veh FAM212B (11763350_a_at) / RFU PLEKHG5 (11743358_a_at) / Fold change /veh PLEKHG5 (11743358_a_at) / RFU ZSCAN30 (11745921_a_at) / Fold change /veh ZSCAN30 (11745921_a_at) / RFU CMKLR1 (11741424_a_at) / Fold change /veh CMKLR1 (11741424_a_at) / RFU LOC101060620 /// MAPK8IP1 (11723275_at) / Fold change /veh LOC101060620 /// MAPK8IP1 (11723275_at) / RFU SPTSSB (11747773_x_at) / Fold change /veh SPTSSB (11747773_x_at) / RFU PRSS12 (11739890_at) / Fold change /veh PRSS12 (11739890_at) / RFU BIN1 (11741810_x_at) / Fold change /veh BIN1 (11741810_x_at) / RFU WNT11 (11732464_a_at) / Fold change /veh WNT11 (11732464_a_at) / RFU C10orf10 (11716521_a_at) / Fold change /veh C10orf10 (11716521_a_at) / RFU C5orf56 (11738089_at) / Fold change /veh C5orf56 (11738089_at) / RFU CYB561 (11721691_x_at) / Fold change /veh CYB561 (11721691_x_at) / RFU ANKRD19P (11752326_a_at) / Fold change /veh ANKRD19P (11752326_a_at) / RFU OR2T12 /// OR2T33 /// OR2T8 (11738714_s_at) / Fold change /veh OR2T12 /// OR2T33 /// OR2T8 (11738714_s_at) / RFU VCAN (11748164_a_at) / Fold change /veh VCAN (11748164_a_at) / RFU JSRP1 (11732532_at) / Fold change /veh JSRP1 (11732532_at) / RFU KRTAP10-11 (11738290_x_at) / Fold change /veh KRTAP10-11 (11738290_x_at) / RFU MYO3A (11730013_a_at) / Fold change /veh MYO3A (11730013_a_at) / RFU EBF3 (11725865_a_at) / Fold change /veh EBF3 (11725865_a_at) / RFU CAMK2N1 (11719241_x_at) / Fold change /veh CAMK2N1 (11719241_x_at) / RFU C5orf56 (11738088_a_at) / Fold change /veh C5orf56 (11738088_a_at) / RFU OLFML3 (11715873_a_at) / Fold change /veh OLFML3 (11715873_a_at) / RFU LOC100653217 /// NTM (11731650_a_at) / Fold change /veh LOC100653217 /// NTM (11731650_a_at) / RFU MAPK11 (11762145_a_at) / Fold change /veh MAPK11 (11762145_a_at) / RFU FIZ1 (11724087_x_at) / Fold change /veh FIZ1 (11724087_x_at) / RFU OASL (11726364_x_at) / Fold change /veh OASL (11726364_x_at) / RFU SOX15 (11748057_x_at) / Fold change /veh SOX15 (11748057_x_at) / RFU CD79A (11719716_a_at) / Fold change /veh CD79A (11719716_a_at) / RFU HIST1H1D (11736915_at) / Fold change /veh HIST1H1D (11736915_at) / RFU CASKIN2 (11723855_a_at) / Fold change /veh CASKIN2 (11723855_a_at) / RFU LOC730098 (11760151_x_at) / Fold change /veh LOC730098 (11760151_x_at) / RFU OR4N2 (11742367_at) / Fold change /veh OR4N2 (11742367_at) / RFU PRRT2 (11749266_a_at) / Fold change /veh PRRT2 (11749266_a_at) / RFU SNX32 (11753110_a_at) / Fold change /veh SNX32 (11753110_a_at) / RFU CDHR5 (11726645_a_at) / Fold change /veh CDHR5 (11726645_a_at) / RFU RCAN1 (11760418_a_at) / Fold change /veh RCAN1 (11760418_a_at) / RFU FAM167A (11723789_a_at) / Fold change /veh FAM167A (11723789_a_at) / RFU FAM26E (11764081_at) / Fold change /veh FAM26E (11764081_at) / RFU ISYNA1 (11749810_s_at) / Fold change /veh ISYNA1 (11749810_s_at) / RFU ACY1 (11761880_at) / Fold change /veh ACY1 (11761880_at) / RFU 11764098_at / Fold change /veh 11764098_at / RFU SAMD14 (11745864_x_at) / Fold change /veh SAMD14 (11745864_x_at) / RFU NPB (11741838_a_at) / Fold change /veh NPB (11741838_a_at) / RFU TMPRSS6 (11731388_a_at) / Fold change /veh TMPRSS6 (11731388_a_at) / RFU KRTAP10-2 (11738614_at) / Fold change /veh KRTAP10-2 (11738614_at) / RFU ARHGAP8 /// PRR5-ARHGAP8 (11727945_x_at) / Fold change /veh ARHGAP8 /// PRR5-ARHGAP8 (11727945_x_at) / RFU KRTAP5-7 /// NADSYN1 (11734609_at) / Fold change /veh KRTAP5-7 /// NADSYN1 (11734609_at) / RFU RASL12 (11751679_a_at) / Fold change /veh RASL12 (11751679_a_at) / RFU CDKN2B (11736163_a_at) / Fold change /veh CDKN2B (11736163_a_at) / RFU PRF1 (11729649_at) / Fold change /veh PRF1 (11729649_at) / RFU, ZNF638 /// ZNF638-IT1 / Fold change vs veh, ZNF638 /// ZNF638-IT1 / RFU, PANK3 / Fold change vs veh, PANK3 / RFU, SH3YL1 / Fold change vs veh, SH3YL1 / RFU, ZEB2 / Fold change vs veh, ZEB2 / RFU, NRIP1 / Fold change vs veh, NRIP1 / RFU, PTTG1IP / Fold change vs veh, PTTG1IP / RFU, CAPN2 / Fold change vs veh, CAPN2 / RFU, MED14 / Fold change vs veh, MED14 / RFU, SNORA58 / Fold change vs veh, SNORA58 / RFU, C1orf63 / Fold change vs veh, C1orf63 / RFU, LRRFIP1 / Fold change vs veh, LRRFIP1 / RFU, NDUFAF7 / Fold change vs veh, NDUFAF7 / RFU, SLC12A2 / Fold change vs veh, SLC12A2 / RFU, IBTK / Fold change vs veh, IBTK / RFU, ESF1 / Fold change vs veh, ESF1 / Fold change vs veh, TMEM50B / RFU, TAOK1 / Fold change vs veh, TAOK1 / RFU, ACBD3 / Fold change vs veh, ACBD3 / RFU, TMA16 / Fold change vs veh, TMA16 / RFU, RWDD3 / Fold change vs veh, RWDD3 / RFU, BCAT1 / Fold change vs veh, BCAT1 / RFU, EDEM3 / Fold change vs veh, EDEM3 / RFU, TMEM33 / Fold change vs veh, TMEM33 / RFU, WDR75 / Fold change vs veh, WDR75 / RFU, AHCTF1 / Fold change vs veh, AHCTF1 / RFU, TFRC / Fold change vs veh, TFRC / RFU, ZDHHC17 / Fold change vs veh, ZDHHC17 / RFU, NOM1 / Fold change vs veh, NOM1 / RFU, ARL8B / Fold change vs veh, ARL8B / RFU, ZBTB11 / Fold change vs veh, ZBTB11 / RFU, TAMM41 / Fold change vs veh, TAMM41 / RFU, KIAA1704 /// LOC100996395 / Fold change vs veh, KIAA1704 /// LOC100996395 / RFU, ING1 / Fold change vs veh, ING1 / RFU, TRMT61B / Fold change vs veh, TRMT61B / RFU, FUBP3 / Fold change vs veh, FUBP3 / RFU, TP53 / Fold change vs veh, TP53 / RFU, TNKS2 / Fold change vs veh, TNKS2 / RFU, ZFP14 / Fold change vs veh, ZFP14 / RFU, ACTR2 / Fold change vs veh, ACTR2 / RFU, PPP3R1 / Fold change vs veh, PPP3R1 / RFU, PIK3R1 / Fold change vs veh, PIK3R1 / RFU, HNRNPA1 / Fold change vs veh, HNRNPA1 / RFU, RNF170 / Fold change vs veh, RNF170 / RFU, ZNF28 / Fold change vs veh, ZNF28 / RFU, RNGTT / Fold change vs veh, RNGTT / RFU, OGT / Fold change vs veh, OGT / RFU, BRD1 / Fold change vs veh, BRD1 / RFU, MARS / Fold change vs veh, MARS / RFU, ZNF655 / Fold change vs veh, ZNF655 / RFU, FAHD1 / Fold change vs veh, FAHD1 / RFU, BDP1 / Fold change vs veh, BDP1 / RFU, LRRCC1 / Fold change vs veh, LRRCC1 / RFU, ARID1A / Fold change vs veh, ARID1A / RFU, ZNF146 / Fold change vs veh, ZNF146 / RFU, ZNF330 / Fold change vs veh, ZNF330 / RFU, GPN3 / Fold change vs veh, GPN3 / RFU, C9orf123 / Fold change vs veh, C9orf123 / RFU, N4BP2L2 / Fold change vs veh, N4BP2L2 / RFU, ARFIP1 / Fold change vs veh, ARFIP1 / RFU, FAM179B / Fold change vs veh, FAM179B / RFU, BCL10 / Fold change vs veh, BCL10 / RFU, UHRF1BP1L / Fold change vs veh, UHRF1BP1L / RFU, BET1 / Fold change vs veh, BET1 / RFU, CNOT2 / Fold change vs veh, CNOT2 / RFU, ZNF268 / Fold change vs veh, ZNF268 / Fold change vs veh, ZNF507 / RFU, DGCR2 / Fold change vs veh, DGCR2 / RFU, WDSUB1 / Fold change vs veh, WDSUB1 / Fold change vs veh, HSP90B1 /// MIR3652 / RFU, ADSS / Fold change vs veh, ADSS / RFU, GK / Fold change vs veh, GK / RFU, ZNF148 / Fold change vs veh, ZNF148 / RFU, TAF9 / Fold change vs veh, TAF9 / RFU, SLC1A5 / Fold change vs veh, SLC1A5 / RFU, SLMO2 / Fold change vs veh, SLMO2 / RFU, ABCC4 / Fold change vs veh, ABCC4 / RFU, LOC101060439 /// RAP1B / Fold change vs veh, LOC101060439 /// RAP1B / RFU, RFX7 / Fold change vs veh, RFX7 / RFU, GTPBP10 / Fold change vs veh, GTPBP10 / RFU, CNEP1R1 / Fold change vs veh, CNEP1R1 / RFU, BIVM-ERCC5 /// ERCC5 / Fold change vs veh, BIVM-ERCC5 /// ERCC5 / RFU, ILF3 / Fold change vs veh, ILF3 / RFU 11762660_at / Fold change /veh 11762660_at / RFU VCAN (11757783_s_at) / Fold change /veh VCAN (11757783_s_at) / RFU DDX43 (11728927_at) / Fold change /veh DDX43 (11728927_at) / RFU KRT8 (11758188_x_at) / Fold change /veh KRT8 (11758188_x_at) / RFU NKD1 (11759106_at) / Fold change /veh NKD1 (11759106_at) / RFU SRD5A1 (11742802_a_at) / Fold change /veh SRD5A1 (11742802_a_at) / RFU TPSAB1 /// TPSB2 (11721975_s_at) / Fold change /veh TPSAB1 /// TPSB2 (11721975_s_at) / RFU GSTM3 (11746129_a_at) / Fold change /veh GSTM3 (11746129_a_at) / RFU IL23R (11737362_x_at) / Fold change /veh IL23R (11737362_x_at) / RFU TMEM51 (11727254_a_at) / Fold change /veh TMEM51 (11727254_a_at) / RFU PIWIL2 (11732686_x_at) / Fold change /veh PIWIL2 (11732686_x_at) / RFU ORM1 (11744905_x_at) / Fold change /veh ORM1 (11744905_x_at) / RFU CCDC152 (11743942_at) / Fold change /veh CCDC152 (11743942_at) / RFU ECM1 (11717891_a_at) / Fold change /veh ECM1 (11717891_a_at) / RFU IL23R (11748794_a_at) / Fold change /veh IL23R (11748794_a_at) / RFU TNFAIP8L3 (11732012_x_at) / Fold change /veh TNFAIP8L3 (11732012_x_at) / RFU MBOAT4 (11741988_at) / Fold change /veh MBOAT4 (11741988_at) / RFU 11764193_at / Fold change /veh 11764193_at / RFU TMEM53 (11763286_at) / Fold change /veh TMEM53 (11763286_at) / RFU MAGEB2 (11727129_at) / Fold change /veh MAGEB2 (11727129_at) / RFU TMEM200A (11744735_a_at) / Fold change /veh TMEM200A (11744735_a_at) / RFU CCDC152 (11751479_a_at) / Fold change /veh CCDC152 (11751479_a_at) / RFU FAM211A (11726209_a_at) / Fold change /veh FAM211A (11726209_a_at) / RFU RGS16 (11746705_a_at) / Fold change /veh RGS16 (11746705_a_at) / RFU VCAN (11755009_s_at) / Fold change /veh VCAN (11755009_s_at) / RFU RHOB (11743442_s_at) / Fold change /veh RHOB (11743442_s_at) / RFU RGS16 (11720943_a_at) / Fold change /veh RGS16 (11720943_a_at) / RFU RGS16 (11720944_at) / Fold change /veh RGS16 (11720944_at) / RFU, VPS4B / Fold change vs veh, VPS4B / RFU, CREB1 / Fold change vs veh, CREB1 / RFU, DNAJC13 / Fold change vs veh, DNAJC13 / RFU, GNAQ / Fold change vs veh, GNAQ / RFU, CDK5R1 / Fold change vs veh, CDK5R1 / RFU, ZRANB3 / Fold change vs veh, ZRANB3 / RFU, CUL4A / Fold change vs veh, CUL4A / RFU, CCNY / Fold change vs veh, CCNY / RFU, UFL1 / Fold change vs veh, UFL1 / RFU, COG3 / Fold change vs veh, COG3 / RFU, DIAPH2 / Fold change vs veh, DIAPH2 / RFU, SKA2 / Fold change vs veh, SKA2 / RFU, AFF3 / Fold change vs veh, AFF3 / RFU, LMF1 / Fold change vs veh, LMF1 / RFU, IPO11 / Fold change vs veh, IPO11 / RFU, DFFB / Fold change vs veh, DFFB / RFU, FOXP1 / Fold change vs veh, FOXP1 / RFU, CARD8 / Fold change vs veh, CARD8 / RFU, STRN3 / Fold change vs veh, STRN3 / RFU, ADK / Fold change vs veh, ADK / RFU, RASSF2 / Fold change vs veh, RASSF2 / RFU, WIPF1 / Fold change vs veh, WIPF1 / RFU, LARP1B / Fold change vs veh, LARP1B / RFU, RASA1 / Fold change vs veh, RASA1 / RFU, RB1 / Fold change vs veh, RB1 / RFU, PPFIA1 / Fold change vs veh, PPFIA1 / RFU, MAT2A / Fold change vs veh, MAT2A / RFU, CCT5 / Fold change vs veh, CCT5 / RFU, WDR92 / Fold change vs veh, WDR92 / RFU, CUX1 / Fold change vs veh, CUX1 / RFU, TTC7A / Fold change vs veh, TTC7A / RFU, TMEM135 / Fold change vs veh, TMEM135 / RFU, DEPTOR / Fold change vs veh, DEPTOR / RFU, CPM / Fold change vs veh, CPM / RFU, DNAJB6 / Fold change vs veh, DNAJB6 / RFU, CACNA2D3 / Fold change vs veh, CACNA2D3 / RFU, DTX4 / Fold change vs veh, DTX4 / RFU, TFCP2 / Fold change vs veh, TFCP2 / RFU, GMCL1 /// GMCL1P1 / Fold change vs veh, GMCL1 /// GMCL1P1 / RFU, AEBP2 / Fold change vs veh, AEBP2 / RFU, SNHG1 /// SNORD22 /// SNORD25 /// SNORD26 /// SNORD27 /// SNORD28 /// SNORD29 /// SNORD31 / Fold change vs veh, SNHG1 /// SNORD22 /// SNORD25 /// SNORD26 /// SNORD27 /// SNORD28 /// SNORD29 /// SNORD31 / Fold change (Aza/veh), C12orf56 (ProbeSet 11735607_a_at) / Fold change (ACY-1035/veh), C12orf56 (ProbeSet 11735607_a_at) / Fold change (Aza/veh), FGFR1OP (ProbeSet 11751329_s_at) / Fold change (ACY-1035/veh), FGFR1OP (ProbeSet 11751329_s_at) / Fold change (Aza/veh), VPS36 (ProbeSet 11739960_a_at) / Fold change (ACY-1035/veh), VPS36 (ProbeSet 11739960_a_at) / RFU SYPL1 (11715823_x_at) / Fold change /veh SYPL1 (11715823_x_at) / RFU IGFBP7 (11715501_s_at) / Fold change /veh IGFBP7 (11715501_s_at) / RFU REEP3 (11722064_at) / Fold change /veh REEP3 (11722064_at) / RFU IGLL1 (11728026_x_at) / Fold change /veh IGLL1 (11728026_x_at): dose or concentration left out as unconfirmed
# Details: ProbeSet 11758919_x_at; LIST D
compound,measurement,value
Nc1ncn([C@@H]2O[C@H](CO)[C@@H](O)[C@H]2O)c(=O)n1 [azacitidine],"Fold change vs veh, TFCP2",0.71
